The record followed here is PubChem BioAssay AID652066 (The Scripps Research Institute Molecular Screening Center, 2013).

For orientation: IC50 means the point on the concentration scale where inhibition reaches its midpoint.

This assay deals with Nuclear receptor coactivator 3 (Homo sapiens) (UniProt Q9Y6Q9). As to the kind of experiment: reduction of cellular SRC-3 protein level, late-stage follow-up, mechanism study for SRC-3 inhibitor probe project, cell-based, MCF-7, Western blot, powder samples (AID 652066). As to conditions: MCF-7 SRC-3 protein level, 24 h. Background: Immunoblotting shows a protein as a band on a membrane.
Chain of Nuclear receptor coactivator 3 (Homo sapiens) (Q9Y6Q9 whole entry, looked up): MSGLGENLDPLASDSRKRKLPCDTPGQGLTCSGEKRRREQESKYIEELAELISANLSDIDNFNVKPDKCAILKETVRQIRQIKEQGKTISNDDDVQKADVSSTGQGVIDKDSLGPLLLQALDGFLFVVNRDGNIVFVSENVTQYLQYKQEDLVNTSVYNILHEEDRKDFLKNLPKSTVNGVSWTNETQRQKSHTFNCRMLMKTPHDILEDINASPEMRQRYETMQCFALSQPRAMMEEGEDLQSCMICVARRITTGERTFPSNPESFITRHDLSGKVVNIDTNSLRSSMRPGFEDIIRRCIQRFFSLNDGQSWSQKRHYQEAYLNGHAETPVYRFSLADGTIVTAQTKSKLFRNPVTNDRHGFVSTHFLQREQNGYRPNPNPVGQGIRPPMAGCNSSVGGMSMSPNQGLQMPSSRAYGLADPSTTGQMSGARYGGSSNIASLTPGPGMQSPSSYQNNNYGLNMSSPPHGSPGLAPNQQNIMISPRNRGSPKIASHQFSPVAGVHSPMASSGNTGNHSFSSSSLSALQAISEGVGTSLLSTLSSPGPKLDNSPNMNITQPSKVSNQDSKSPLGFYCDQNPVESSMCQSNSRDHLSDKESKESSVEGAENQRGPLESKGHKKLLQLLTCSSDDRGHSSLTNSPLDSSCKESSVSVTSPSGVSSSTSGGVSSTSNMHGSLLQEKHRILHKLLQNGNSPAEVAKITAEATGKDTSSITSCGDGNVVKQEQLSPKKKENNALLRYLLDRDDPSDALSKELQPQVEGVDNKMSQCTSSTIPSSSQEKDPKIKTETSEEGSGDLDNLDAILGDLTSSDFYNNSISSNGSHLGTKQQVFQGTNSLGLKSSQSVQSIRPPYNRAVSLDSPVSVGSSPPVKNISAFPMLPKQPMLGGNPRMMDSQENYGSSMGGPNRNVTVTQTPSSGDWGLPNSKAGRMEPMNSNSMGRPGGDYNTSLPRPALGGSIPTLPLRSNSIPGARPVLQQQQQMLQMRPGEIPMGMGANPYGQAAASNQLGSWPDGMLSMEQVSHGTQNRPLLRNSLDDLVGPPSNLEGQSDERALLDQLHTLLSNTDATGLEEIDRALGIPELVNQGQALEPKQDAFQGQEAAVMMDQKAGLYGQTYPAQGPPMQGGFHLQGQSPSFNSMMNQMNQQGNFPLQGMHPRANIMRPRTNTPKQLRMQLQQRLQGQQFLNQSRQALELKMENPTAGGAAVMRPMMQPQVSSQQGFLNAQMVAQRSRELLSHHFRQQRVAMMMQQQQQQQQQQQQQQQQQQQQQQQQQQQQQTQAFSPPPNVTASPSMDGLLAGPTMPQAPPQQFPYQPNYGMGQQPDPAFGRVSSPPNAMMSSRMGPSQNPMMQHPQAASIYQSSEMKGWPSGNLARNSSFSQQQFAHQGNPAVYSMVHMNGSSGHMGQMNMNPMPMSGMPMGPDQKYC
On to `COc1cc2c(cc1OC)C(NC(=O)C(F)(F)F)CNC2=O` (stereo unspecified), for which the IC50 is under 2000 nM.
In the case of `O=C(CCl)N1N=C(c2ccco2)CC1c1ccco1` (stereo unspecified) it was under 2000 nM; in that of `O=C(Nc1nc(-c2ccccn2)cs1)c1cccc(S(=O)(=O)N2CCOCC2)c1`, under 2000 nM; in that of `NC(=O)c1sc2nc3c(c(-c4ccco4)c2c1N)CCC3`, under 2000 nM.
`COc1cc(C2c3cc4c(cc3C(OC3OC5COC(c6cccs6)OC5C(O)C3O)C3COC(=O)C23)OCO4)cc(OC)c1O` (stereo unspecified): the half-inhibitory concentration (IC50) was under 400 nM.
Next, `O=C(CCl)N1N=C(c2ccco2)CC1c1cccs1` (stereo unspecified): under 400 nM.
